The test system of data set [1] is HCV GT1a subgenomic replicon H77 RLucP. As to the kind of experiment: Luciferase reporter replicon antiviral assay, GT1a. To be noted: Hepatitis C virus. In kind it is cell-based. Here is the method:
(§1) The anti-HCV activity of STG-175 was conducted using a panel of luciferase reporter replicon cell lines including GT1a, GT1b, GT2a, GT3a and GT4a as we described previously. The GT1a subgenomic renilla luciferase reporter replicon H77 RLucP (7) was supplied by Dr. Delaney. The GT1b subgenomic firefly luciferase reporter replicon pFK-I389/NS3-3’ [29] was supplied by Dr. Bartenschlager. The GT1B subgenomic NS3, NS5A and NS5B mutants were created via homologous recombination using the In-Fusion HD Cloning kit (Clontech) as we described previously. The GT2a genomic luciferase reporter replicon Luc-Neo-JFH-1 was generated as previously. The plasmid pFK-Luc-JFH1 was supplied from Drs. […] The CellTiter-Fluor™ Cell Viability Assay is a non-lytic fluorescence assay, which measures the number of live cells. […] Luciferase activity was determined using the Luciferase Assay System (Promega) in a Berthold luminometer. […] Viable cells continuously convert resazurin to resorufin, increasing the overall fluorescence and color of the media surrounding cells.
(§2) Fig 2 Anti-HCV activities of STG-175 among GTs. […] Luciferase activity was determined using the Luciferase Assay System in a Berthold luminometer. […] Data are expressed as mean of relative light units and calculated EC50s are presented. […]

In data set [2] the test system is HCV GT1a, GT1b, GT2a, GT3a and GT4a replicons. As to the kind of experiment: Panel of HCV replicon cell lines GT1a to 4a (summary statements). It counts as cell-based. Particulars: Hepatitis C virus, read-out: EC50 range among HCV GTs (GT1a to 4a), multi-genotypic anti-HCV activity.
The nature of data set [3]: alamarBlue cytotoxicity (CC50), GT4a replicon cell line. Particulars: human. How it is done:
as §1, §2

Data set [4] relates to wild-type Con1 (GT1b) replicon colonies. As to the kind of experiment: Degree of resistance of replicon colonies, wild-type. In kind it is cell-based. Particulars: Hepatitis C virus, read-out: EC50 of STG-175, WT colonies. Here is the method:
Huh-7 cells expressing subgenomic Con1 (GT1b) replicon were incubated with STG-175 and 100 μg/ml of G418 in 10 cm CellBIND™ plates (Corning). Cells were split every 3 days at 1:6 and G418 concentration was increased sequentially to 200 and 300 μg/mL. […] At this point, medium was changed every 3–4 days until emergence of resistant clones. Clones were individually transferred to 24-well CellBIND using cloning disks. […] Each clone was split in 2 identical plates and was separately maintained under 0.5 or 1.0 μM STG-175 and 100 μg/mL of G418. Once the colonies were established, G418 concentration was increased to 300 μg/mL. […] Briefly, total RNA was prepared using the RNeasy Plus Mini Kit as per manufacturer’s recommendation. […] The amplicons were gel purified, quantitated and sequenced using primers located internally in NS5A or NS5B reading to the 5’ and 3’ ends. Sequences were assembled and analyzed using the ClustalW algorithm within the MacVector program. […]
Fig 3 Replicon clearance, replication rebound and resistance analyses. […] At each passage, samples of cells were collected, RNA extracted and analyzed by RT-PCR for HCV RNA levels. […] At each passage, sample of cells were collected, RNA extracted and analyzed by RT-PCR for HCV RNA levels. […] Data are expressed as number of HCV RNA copies per cell. […] Data are expressed as mean of relative light units and calculated EC50s are presented. […]

Like-named read-outs stand apart in the source and are kept apart here.

`CC=CCC(C)C(O)C1C(=O)NC(CC)C(=O)N(C)C(CSCCCCO)C(=O)N(C)C(CC(C)(C)O)C(=O)NC(C(C)C)C(=O)N(C)C(CC(C)C)C(=O)NC(C)C(=O)NC(C)C(=O)N(C)C(CC(C)C)C(=O)N(C)C(CC(C)C)C(=O)N(C)C(C(C)C)C(=O)N1C` (centres unmarked) [STG-175]: the EC50 in data set [1] (72 h post-drug addition, luciferase, read-out: EC50 GT1a) is 13.5 nM; in data set [1] (Fig 2D table, unit inferred, read-out: EC50 GT1a (Fig 2D)), 13.5 nM; in data set [2], 11.5 to 38.9 nM; in data set [4], 15.7 nM. The CC50 at 72 h in data set [3] is over 10000 nM.

Source of the values: paper PMC4841536, “Characterization of the Anti-HCV Activities of the New Cyclophilin Inhibitor STG-175” (PLoS ONE, 2016).
